Target: T1, SIRT1 (Homo sapiens, UniProt Q96EB6)
T1 sequence (Q96EB6 1-747): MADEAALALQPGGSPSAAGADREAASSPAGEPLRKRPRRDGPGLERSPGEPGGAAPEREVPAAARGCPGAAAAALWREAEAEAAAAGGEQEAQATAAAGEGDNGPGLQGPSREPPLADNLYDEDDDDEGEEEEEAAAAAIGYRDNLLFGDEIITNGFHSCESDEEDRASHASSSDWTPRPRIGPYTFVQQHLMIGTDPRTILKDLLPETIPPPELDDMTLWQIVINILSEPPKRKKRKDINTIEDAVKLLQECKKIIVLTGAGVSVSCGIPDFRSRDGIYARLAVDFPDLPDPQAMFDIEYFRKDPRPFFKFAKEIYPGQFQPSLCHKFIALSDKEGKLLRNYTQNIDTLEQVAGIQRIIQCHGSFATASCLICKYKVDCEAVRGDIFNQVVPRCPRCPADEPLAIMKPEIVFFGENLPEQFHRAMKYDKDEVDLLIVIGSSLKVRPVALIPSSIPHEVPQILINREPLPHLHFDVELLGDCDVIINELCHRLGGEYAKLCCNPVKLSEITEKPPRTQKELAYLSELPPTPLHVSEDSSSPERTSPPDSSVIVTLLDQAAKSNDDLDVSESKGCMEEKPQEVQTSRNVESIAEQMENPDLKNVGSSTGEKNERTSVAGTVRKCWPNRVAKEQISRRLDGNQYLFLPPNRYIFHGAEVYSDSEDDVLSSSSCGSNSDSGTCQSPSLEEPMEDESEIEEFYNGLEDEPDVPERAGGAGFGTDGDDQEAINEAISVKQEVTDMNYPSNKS
Assay: Mass spectrometry based assay to identify modulators of SIRT1 activity (deacetylation of p53-based acetylated peptide substrate)
Format: biochemical
Conditions: 10 nM SIRT1, 0.5 μM peptide substrate, 120 μM βNAD+, 25 minutes at 25° C.; for EC1.5: SIRT1 activation
Excerpt: A mass spectrometry based assay was used to identify modulators of SIRT1 activity. The mass spectrometry based assay utilizes a peptide having 20 amino acid residues as follows: Ac-EE-K(biotin)-GQSTSSHSK(Ac)NleSTEG-K(5TMR)-EE-NH2 (SEQ ID NO: 1) wherein K(Ac) is an acetylated lysine residue and Nle is a norleucine. The peptide is labeled with the fluorophore 5TMR (excitation 540 nm/emission 580 nm) at the C-terminus. The sequence of the peptide substrate is based on p53 with several modifications. In addition, the methionine residue naturally present in the sequence was replaced with the norleucine because the methionine may be susceptible to oxidation during synthesis and purification.
The mass spectrometry assay is conducted as follows: 0.5 μM peptide substrate and 120 μM βNAD^+ is incubated with 10 nM SIRT1 for 25 minutes at 25° C. in a reaction buffer (50 mM Tris-acetate pH 8, 137 mM NaCl, 2.7 mM KCl, 1 mM MgCl2, 5 mM DTT, 0.05% BSA). Test compounds may be added to the reaction as described above. The SirT1 gene is cloned into a T7-promoter containing vector and transformed into BL21(DE3). After the 25 minute incubation with SIRT1, 10 μL of 10% formic acid is added to stop the reaction. Reactions are sealed and frozen for later mass spec analysis. Determination of the mass of the substrate peptide allows for precise determination of the degree of acetylation (i.e. starting material) as compared to deacetylated peptide (product).
A control for inhibition of sirtuin activity is conducted by adding 1 μL of 500 mM nicotinamide as a negative control at the start of the reaction (e.g., permits determination of maximum sirtuin inhibition). A control for activation of sirtuin activity is conducted using 10 nM of sirtuin protein, with 1 μL of DMSO in place of compound, to determine the amount of deacetylation of the substrate at a given timepoint within the linear range of the assay. This timepoint is the same as that used for test compounds and, within the linear range, the endpoint represents a change in velocity.
For the above assay, SIRT1 protein was expressed and purified as follows. The SirT1 gene was cloned into a T7-promoter containing vector and transformed into BL21(DE3). The protein was expressed by induction with 1 mM IPTG as an N-terminal His-tag fusion protein at 18° C. overnight and harvested at 30,000×g. Cells were lysed with lysozyme in lysis buffer (50 mM Tris-HCl, 2 mM Tris[2-carboxyethyl]phosphine (TCEP), 10 μM ZnCl2, 200 mM NaCl) and further treated with sonication for 10 min for complete lysis. The protein was purified over a Ni-NTA column (Amersham) and fractions containing pure protein were pooled, concentrated and run over a sizing column (Sephadex S200 26/60 global). The peak containing soluble protein was collected and run on an Ion-exchange column (MonoQ). Gradient elution (200 mM-500 mM NaCl) yielded pure protein. This protein was concentrated and dialyzed against dialysis buffer (20 mM Tris-HCl, 2 mM TCEP) overnight. The protein was aliquoted and frozen at −80° C. until further use.
Sirtuin modulating compounds that activated SIRT1 were identified using the assay described above and are shown below in Table 1. The EC1-5 values for the activating compounds are represented by A′ (EC1.5<250 nM), A (EC1.5≧250 nM and ≦1 uM), B (EC1.5>1 and ≦10 uM), or C (EC1.5>10 uM). The percent maximum fold activation is represented by A (Fold activation≧300%), B (Fold Activation≧150% and <300%), or C (Fold Activation<150%).

Structure (SMILES)	FOLD ACT. (percent maximum fold activation)	EC1.5
O=C(Nc1ccccc1-c1nc2ccncc2s1)c1cc(NCc2ccncc2)nc(-c2ccccc2)n1 [Compound 32]	A (Fold activation≧300%)	A (EC1.5≧250 nM and ≦1 uM)
CN(C)CCNCCOc1cc(C(=O)Nc2ccccc2-c2nc3cccnc3s2)nc(-c2ccccc2)c1 [Compound 33]	A (Fold activation≧300%)	A′ (EC1.5<250 nM)
O=C(Nc1ccccc1-c1nc2cccnc2s1)c1cc(O)cc(-c2ccccc2)n1 [Compound 34]	A (Fold activation≧300%)	A (EC1.5≧250 nM and ≦1 uM)
C[C@@H]1CN(c2cc(C(=O)Nc3ccccc3-c3nc4cccnc4s3)nc(-c3ccccc3)n2)C[C@H](C)N1 [Compound 35]	A (Fold activation≧300%)	A′ (EC1.5<250 nM)
C[C@@H]1CN(CCOc2cc(C(=O)Nc3ccccc3-c3nc4cccnc4s3)nc(-c3ccccc3)c2)C[C@H](C)O1 [Compound 36]	A (Fold activation≧300%)	A′ (EC1.5<250 nM)
O=C(Nc1ccccc1-c1nc2cccnc2s1)c1cc(N2CCCNCC2)nc(-c2ccccc2)n1 [Compound 37]	A (Fold activation≧300%)	A′ (EC1.5<250 nM)
CN(C)c1cc(C(=O)Nc2ccccc2-c2nc3cccnc3s2)nc(-c2ccccc2)n1 [Compound 38]	B (Fold Activation≧150% and <300%)	B (EC1.5>1 and ≦10 uM)
O=C(Nc1ccccc1-c1nc2cccnc2s1)c1cc(NCCO)nc(-c2ccccc2)n1 [Compound 39]	A (Fold activation≧300%)	A′ (EC1.5<250 nM)
O=C(Nc1ccccc1-c1nc2cccnc2s1)c1cc(NCCCO)nc(-c2ccccc2)n1 [Compound 40]	A (Fold activation≧300%)	A′ (EC1.5<250 nM)
CCN(CC)CCNc1cc(C(=O)Nc2ccccc2-c2nc3cccnc3s2)nc(-c2ccccc2)n1 [Compound 41]	A (Fold activation≧300%)	A′ (EC1.5<250 nM)
CCCCNc1cc(C(=O)Nc2ccccc2-c2nc3cccnc3s2)nc(-c2ccccc2)n1 [Compound 42]	C (Fold Activation<150%)	C (EC1.5>10 uM)
CCOC(=O)CCNc1cc(C(=O)Nc2ccccc2-c2nc3cccnc3s2)nc(-c2ccccc2)n1 [Compound 43]	B (Fold Activation≧150% and <300%)	A (EC1.5≧250 nM and ≦1 uM)
O=C(O)CCNc1cc(C(=O)Nc2ccccc2-c2nc3cccnc3s2)nc(-c2ccccc2)n1 [Compound 44]	A (Fold activation≧300%)	A (EC1.5≧250 nM and ≦1 uM)
CSCCNc1cc(C(=O)Nc2ccccc2-c2nc3cccnc3s2)nc(-c2ccccc2)n1 [Compound 45]	B (Fold Activation≧150% and <300%)	B (EC1.5>1 and ≦10 uM)
CS(=O)(=O)CCNc1cc(C(=O)Nc2ccccc2-c2nc3cccnc3s2)nc(-c2ccccc2)n1 [Compound 46]	A (Fold activation≧300%)	A′ (EC1.5<250 nM)
COCCN(C)c1cc(C(=O)Nc2ccccc2-c2nc3cccnc3s2)nc(-c2ccccc2)n1 [Compound 47]	A (Fold activation≧300%)	A′ (EC1.5<250 nM)
O=C(Nc1ccccc1-c1nc2cccnc2s1)c1cc(NCCN2CCNCC2)nc(-c2ccccc2)n1 [Compound 48]	A (Fold activation≧300%)	A′ (EC1.5<250 nM)
O=C(Nc1ccccc1-c1nc2cccnc2s1)c1cc(NC2CCNCC2)nc(-c2ccccc2)n1 [Compound 49]	A (Fold activation≧300%)	A′ (EC1.5<250 nM)
COCCN(C)CCOc1cc(C(=O)Nc2ccccc2-c2nc3cccnc3s2)nc(-c2ccccc2)c1 [Compound 50]	A (Fold activation≧300%)	A′ (EC1.5<250 nM)
CC(=O)NCCNc1cc(C(=O)Nc2ccccc2-c2nc3cccnc3s2)nc(-c2ccccc2)n1 [Compound 51]	A (Fold activation≧300%)	A′ (EC1.5<250 nM)
CC(C)NCCNc1cc(C(=O)Nc2ccccc2-c2nc3cccnc3s2)nc(-c2ccccc2)n1 [Compound 52]	A (Fold activation≧300%)	A (EC1.5≧250 nM and ≦1 uM)
Cc1nc(CCNc2cc(C(=O)Nc3ccccc3-c3nc4cccnc4s3)nc(-c3ccccc3)n2)cs1 [Compound 53]	B (Fold Activation≧150% and <300%)	A (EC1.5≧250 nM and ≦1 uM)
O=C(Nc1ccccc1-c1nc2cccnc2s1)c1cc(NCc2ccccc2)nc(-c2ccccc2)n1 [Compound 54]	C (Fold Activation<150%)	C (EC1.5>10 uM)
O=C(Nc1ccccc1-c1nc2cccnc2s1)c1cc(NCc2ccccn2)nc(-c2ccccc2)n1 [Compound 55]	B (Fold Activation≧150% and <300%)	A (EC1.5≧250 nM and ≦1 uM)
O=C(Nc1ccccc1-c1nc2ccncc2s1)c1cc(NCCN2CCCC2)nc(-c2ccccc2)n1 [Compound 56]	A (Fold activation≧300%)	A′ (EC1.5<250 nM)
O=C(Nc1ccccc1-c1nc2ccncc2s1)c1cc(NCc2ccccn2)nc(-c2ccccc2)n1 [Compound 57]	A (Fold activation≧300%)	A (EC1.5≧250 nM and ≦1 uM)
O=C(Nc1ccccc1-c1nc2cccnc2s1)c1cc(NCc2cccnc2)nc(-c2ccccc2)n1 [Compound 58]	A (Fold activation≧300%)	A (EC1.5≧250 nM and ≦1 uM)
O=C(Nc1ccccc1-c1nc2cccnc2s1)c1cc(NCc2ccncc2)nc(-c2ccccc2)n1 [Compound 59]	A (Fold activation≧300%)	A (EC1.5≧250 nM and ≦1 uM)
O=C(Nc1ccccc1-c1nc2cccnc2s1)c1cc(NCCNc2ccccc2)nc(-c2ccccc2)n1 [Compound 60]	C (Fold Activation<150%)	C (EC1.5>10 uM)
Cl.O=C(Nc1ccccc1-c1nc2cccnc2s1)c1cc(NCCN2CCOCC2)nc(-c2ccccc2)n1 [Compound 61]	A (Fold activation≧300%)	A′ (EC1.5<250 nM)

Source: patent US20110009381A1, “SOLUBILIZED THIAZOLOPYRIDINES” (Sirtis Pharmaceuticals, Inc., priority 2007, published 2011)
